From US20250188044A1 (HARBIN MEDISAN PHARMACEUTICAL CO., LTD., priority 2021, published 2025)
pEC50: −log10 of the molar value. Where two headings read alike, the source gives them in different places.

Experiments:
Format in all cases: cell-based
[1] = molecular target: T1, PPARα (Homo sapiens, UniProt Q07869); assay: Gal4-PPARα(LBD) reporter gene agonistic activity assay in Cos-7 cells; settings: for pEC50: Cos-7 cells, Gal4-PPARα(LBD) reporter, 16 h, 100% = GW7647 10 nM; for agonistic activity for PPARα (EC50 level, in words): Cos-7 reporter assay
T1 construct: hPPARα (279aa-580aa); expressed in transfected cells; host or cells: Cos-7
T1 sequence (Q07869 167-468 limits assumed): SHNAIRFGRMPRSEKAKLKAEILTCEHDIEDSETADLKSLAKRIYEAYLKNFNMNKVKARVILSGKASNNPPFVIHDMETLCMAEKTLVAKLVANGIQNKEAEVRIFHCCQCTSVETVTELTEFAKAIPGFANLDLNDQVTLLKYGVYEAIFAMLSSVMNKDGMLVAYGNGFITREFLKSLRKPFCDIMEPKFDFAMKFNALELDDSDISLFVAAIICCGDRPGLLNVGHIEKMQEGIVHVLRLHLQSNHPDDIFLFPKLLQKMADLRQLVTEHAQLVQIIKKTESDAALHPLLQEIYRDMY
Procedure: (§1) Cos-7 cells (African green monkey kidney fibroblasts, commonly used tool cells) were cultured in a 10 cm cell culture dish in a DMEM complete medium containing 10% fetal bovine serum. When the cells grew to a density of about 70%, the medium was replaced with a fresh medium for later transfection. […] The plasmid working solution was then added to the cell culture dish for cell transfection. […] Test compounds were prepared into appropriate test concentrations with a complete medium and then added to the 96-well plate. […] 10 μL of lysate was pipetted into a white opaque 384-well plate, and then 10 μL of reporter gene assay buffer (purchased from Shanghai Beyotime Biological Tech. Co., Ltd.) was added. The bioluminescence was detected by using a multimode microplate reader, and the corresponding half maximal effective concentration (EC50) value was calculated according to the detection value.

[2] = molecular target: T2, PPARδ (Homo sapiens, UniProt Q03181); assay: Gal4-PPARδ(LBD) reporter gene agonistic activity assay in Cos-7 cells; settings: for agonistic activity for PPARδ (EC50 level, in words): Cos-7 reporter assay
T2 construct: expressed in transfected cells; host or cells: Cos-7
T2 sequence (Q03181 139-441 limits assumed): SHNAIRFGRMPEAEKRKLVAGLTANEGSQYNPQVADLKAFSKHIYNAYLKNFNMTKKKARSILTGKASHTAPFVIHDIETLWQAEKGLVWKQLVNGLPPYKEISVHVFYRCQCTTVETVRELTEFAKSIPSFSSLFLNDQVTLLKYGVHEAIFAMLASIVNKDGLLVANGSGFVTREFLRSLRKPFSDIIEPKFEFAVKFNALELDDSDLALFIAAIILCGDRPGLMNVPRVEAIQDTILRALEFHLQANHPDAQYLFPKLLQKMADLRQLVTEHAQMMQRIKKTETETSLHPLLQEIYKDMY
Procedure: as §1

[3] = molecular target: T3, PPARγ (Homo sapiens, UniProt P37231); assay: Gal4-PPARγ(LBD) reporter gene agonistic activity assay in Cos-7 cells; settings: Cos-7 cells, Gal4-PPARγ(LBD) reporter, 16 h; 100% = Rosiglitazone 1 μM
T3 construct: hPPARγ (281aa-554aa); expressed in transfected cells; host or cells: Cos-7
T3 sequence (P37231 232-505 limits assumed): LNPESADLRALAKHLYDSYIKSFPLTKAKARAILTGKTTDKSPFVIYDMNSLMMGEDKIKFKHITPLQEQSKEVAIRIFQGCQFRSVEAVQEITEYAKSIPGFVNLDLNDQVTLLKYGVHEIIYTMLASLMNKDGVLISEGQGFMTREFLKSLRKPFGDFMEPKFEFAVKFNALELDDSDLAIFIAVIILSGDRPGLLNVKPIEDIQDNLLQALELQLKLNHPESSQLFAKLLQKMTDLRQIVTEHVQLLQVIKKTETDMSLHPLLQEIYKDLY
Procedure: as §1

[4] = Cos-7 cells, Gal4-PPARδ(LBD) reporter, 16 h, 100% = GW501516 10 nM

Row | SMILES | pEC50 [1] | agonistic activity for PPARα (EC50 level, in words) [1] | pEC50 [2] | agonistic activity for PPARδ (EC50 level, in words) [2] | pEC50 [2, 4] | pEC50 [3]
1 | [2H]C([2H])(c1cc(C)c(OC(C)(C)C(=O)O)c(C)c1)n1ncn(-c2ccc(C(F)(F)F)cc2)c1=O [Compound 187, 2-(2,6-Dimethyl-4-((5-oxo-4-(4-(trifluoromethyl)phenyl)-4,5-dihydro-1H-1,2,4-triazol-1-yl)methyl-d2)phenoxy)-2-methylpropionic acid] | 8.00 | at nanomolar levels | 8.15 | at nanomolar levels | – | –
2 | CC(C)(Oc1ccc(Cn2ncn(-c3ccc(C(F)(F)F)cc3)c2=O)cc1F)C(=O)O [Compound 123, 2-(2-Fluoro-4-((5-oxo-4-(4-(trifluoromethyl)phenyl)-4,5-dihydro-1H-1,2,4-triazol-1-yl)methyl)phenoxy)-2-methylpropionic acid] | 6.40 | – | – | – | 6.18 | –
3 | Cc1cc(Cn2ncn(-c3ccc(OC(F)(F)F)cc3)c2=O)cc(Cl)c1OC(C)(C)C(=O)O [Compound 145, 2-(2-Chloro-6-methyl-4-((5-oxo-4-(4-(trifluoromethoxy)phenyl)-4,5-dihydro-1H-1,2,4-triazol-1-yl)methyl)phenoxy)-2-methylpropionic acid] | 8.10 | at nanomolar levels | 7.54 | at nanomolar levels | – | –
4 | CC(C)(Oc1c(Cl)cc(Cn2ncn(-c3ccc(OC(F)(F)F)cc3)c2=O)cc1Cl)C(=O)O [Compound 149, 2-(2,6-Dichloro-4-((5-oxo-4-(4-(trifluoromethoxy)phenyl)-4,5-dihydro-1H-1,2,4-triazo 1-1-yl)methyl)phenoxy)-2-methylpropionic acid] | 8.15 | – | – | – | 6.65 | –
5 | Cc1cc(OCn2ncn(-c3ccc(C(F)(F)F)cc3)c2=O)cc(C)c1OC(C)(C)C(=O)O [Compound 196, 2-(2,6-Dimethyl-4-((5-oxo-4-(4-(trifluoromethyl)phenyl)-4,5-dihydro-1H-1,2,4-triazol-1-yl)methoxy)phenoxy)-2-methylpropionic acid] | 7.07 | – | – | – | 7.25 | –
6 | CC(C)(Oc1ccc(Cn2ncn(-c3ccc(C(F)(F)F)cc3)c2=O)cc1)C(=O)O [Compound 137, 2-(4-((4-(4-Trifluoromethylphenyl)-5-oxo-4,5-dihydro-1H-1,2,4-triazol-1-yl)methyl)phenoxy)-2-methylpropionic acid] | – | – | – | – | 5.82 | –
7 | Cc1cc(Cn2ncn(-c3ccc(F)cc3)c2=O)cc(C)c1OC(C)(C)C(=O)O [Compound 109, 2-(4-((4-(4-Fluorophenyl)-5-oxo-4,5-dihydro-1H-1,2,4-triazol-1-yl)methyl)-2,6-dimethylphenoxy)-2-methylpropionic acid] | 6.19 | – | – | – | 6.41 | –
8 | Cc1cc(Cn2ncn(-c3ccc(-c4ccccc4)cc3)c2=O)cc(C)c1OC(C)(C)C(=O)O [Compound 117, 2-(4-((4-([1,1′-Biphenyl]-4-yl)-5-oxo-4,5-dihydro-1H-1,2,4-triazol-1-yl)methyl)-2,6-dimethylphenoxy)-2-methylpropionic acid] | – | – | – | – | 6.87 | –
9 | CC(C)(Oc1ccc(Cn2ncn(-c3ccc(OC(F)(F)F)cc3)c2=O)cc1F)C(=O)O [Compound 151, 2-(2-Fluoro-4-((5-oxo-4-(4-(trifluoromethoxy)phenyl)-4,5-dihydro-1H-1,2,4-triazol-1-yl)methyl)phenoxy)-2-methylpropionic acid] | 6.66 | – | – | – | 6.04 | –
10 | Cc1cc(CCn2ncn(-c3ccc(C(F)(F)F)cc3)c2=O)cc(C)c1OC(C)(C)C(=O)O [Compound 194, 2-(2,6-Dimethyl-4-(2-(5-oxo-4-(4-(trifluoromethyl)phenyl)-4,5-dihydro-1H-1,2,4-triazol-1-yl)ethyl)phenoxy)-2-methylpropionic acid] | – | – | – | at nanomolar levels | 7.42 | 5.69
11 | CC(C)(Oc1c(F)cc(Cn2ncn(-c3ccc(OC(F)(F)F)cc3)c2=O)cc1F)C(=O)O [Compound 155, 2-(2,6-Difluoro-4-((5-oxo-4-(4-(trifluoromethoxy)phenyl)-4,5-dihydro-1H-1,2,4-triazol-1-yl)methyl)phenoxy)-2-methylpropionic acid] | 6.45 | – | – | – | 5.86 | –
12 | CC(C)(Oc1ccc(Cn2ncn(-c3ccc(OC(F)(F)F)cc3)c2=O)cc1)C(=O)O [Compound 153, 2-Methyl-2-(4-((5-oxo-4-(4-(trifluoromethoxy)phenyl)-4,5-dihydro-1H-1,2,4-triazol-1-yl)methyl)phenoxy)propionic acid] | 6.30 | – | – | – | 5.78 | –
13 | Cc1cc(Cn2ncn(-c3cccc(C(F)(F)F)c3)c2=O)cc(C)c1OC(C)(C)C(=O)O [Compound 121, 2-(2,6-Dimethyl-4-((5-oxo-4-(3-(trifluoromethyl)phenyl)-4,5-dihydro-1H-1,2,4-triazol-1-yl)methyl)phenoxy)-2-methylpropionic acid] | – | – | – | – | 7.41 | –
14 | CCOc1ccc(-n2cnn(Cc3cc(C)c(OC(C)(C)C(=O)O)c(C)c3)c2=O)cc1 [Compound 69, 2-(4-((4-(4-Ethoxyphenyl)-5-oxo-4,5-dihydro-1H-1,2,4-triazol-1-yl)methyl)-2,6-dimethylphenoxy)-2-methylpropionic acid] | 7.48 | – | – | – | 6.32 | –
15 | Cc1cc(Cn2ncn(-c3ccc(C(F)(F)F)cc3)c2=O)ccc1OC(C)(C)C(=O)O [Compound 77, 2-Methyl-2-(2-methyl-4-((5-oxo-4-(4-(trifluoromethyl)phenyl)-4,5-dihydro-1H-1,2,4-triazol-1-yl)methyl)phenoxy)propionic acid] | 6.99 | – | – | – | 6.88 | –
16 | CC(C)(Oc1c(F)cc(Cn2ncn(-c3ccc(C(F)(F)F)cc3)c2=O)cc1F)C(=O)O [Compound 127, 2-(2,6-Difluoro-4-((5-oxo-4-(4-(trifluoromethyl)phenyl)-4,5-dihydro-1H-1,2,4-triazol-1-yl)methyl)phenoxy)-2-methylpropionic acid] | – | – | – | – | 6.23 | –
17 | CC(C)(Oc1ccc(Cn2ncn(-c3ccc(C(F)(F)F)cc3)c2=O)cc1C(F)(F)F)C(=O)O [Compound 147] | – | – | – | – | 7.09 | 5.75
18 | CC(C)(Oc1ccc(Cn2ncn(-c3ccc(OC(F)(F)F)cc3)c2=O)cc1C(F)(F)F)C(=O)O [Compound 157, 2-Methyl-2-(4-((5-oxo-4-(4-(trifluoromethoxy)phenyl)-4,5-dihydro-1H-1,2,4-triazol-1-yl)methyl)-2-(trifluoromethyl)phenoxy)propionic acid] | 6.56 | – | – | – | – | 5.78
19 | CCc1cc(Cn2ncn(-c3ccc(C(F)(F)F)cc3)c2=O)cc(CC)c1OC(C)(C)C(=O)O [Compound 191, 2-(2,6-Diethyl-4-((5-oxo-4-(4-(trifluoromethyl)phenyl)-4,5-dihydro-1H-1,2,4-triazol-1-yl)methyl)phenoxy)-2-methylpropionic acid] | 7.36 | at nanomolar levels | – | at nanomolar levels | 7.38 | –
20 | Cc1cc(Cn2ncn(-c3ccc(C(C)C)cc3)c2=O)cc(C)c1OC(C)(C)C(=O)O [Compound 115, 2-(4-((4-(4-Isopropylphenyl)-5-oxo-4,5-dihydro-1H-1,2,4-triazol-1-yl)methyl)-2,6-dimethylphenoxy)-2-methylpropionic acid] | 8.10 | – | – | – | – | 5.75
21 | Cc1cc(CCCn2ncn(-c3ccc(C(F)(F)F)cc3)c2=O)cc(C)c1OC(C)(C)C(=O)O [Compound 200, 2-(2,6-Dimethyl-4-(3-(5-oxo-4-(4-(trifluoromethyl)phenyl)-4,5-dihydro-1H-1,2,4-triazol-1-yl)propyl)phenoxy)-2-methylpropionic acid] | 6.87 | – | – | – | 6.67 | –
